Laboratory results reported in publication PMC4503722, “Novel Phenotypic Outcomes Identified for a Public Collection of Approved Drugs from a Publicly Accessible Panel of Assays” (PLoS ONE, 2015).
Where two headings read alike, the source gives them in different places.

Legend:
Assay in all cases: cells
[1] = tested on: HCT116; type: cell-based; conditions: read-out: Basal_Viability ATP HCT116
[2] = tested on: HeLa cells; type: cell-based; conditions: HeLa, HeLa, read-out: CellCycle G2/M
[3] = tested on: SW480; type: cell-based
[4] = tested on: SNU-C1; type: cell-based
[5] = tested on: Colo320; type: cell-based; conditions: read-out: Basal_Viability ATP Colo 320
[6] = tested on: endothelial tube formation in co-cultures of ECFCs and ADSCs treated with VEGF; type: cell-based, human; conditions: read-out: Anti-Angiogenesis
[7] = tested on: HT-29; type: cell-based; conditions: HT-29, read-out: Basal_Viability ATP HT-29
[8] = tested on: NCI-H716 cells; type: cell-based, Human; conditions: read-out: GLP 1 Secretion
[9] = tested on: DLD-1; type: cell-based
[10] = tested on: INS-1E cells; type: cell-based, rat; conditions: read-out: Insulin Secretion
[11] = tested on: RKO; type: cell-based; conditions: RKO, read-out: Basal_Viability ATP RKO
[12] = tested on: HCT116 cells treated with a GSK3β inhibitor; type: cell-based
[13] = tested on: nuclear β-catenin in C2C12 cells; type: cell-based; conditions: read-out: Wnt Pathway
[14] = Homo sapiens, HCT-116, basal, HCT116
[15] = Homo sapiens, S2 Table, 20 = no response at highest concentration
[16] = Homo sapiens, SW480, basal, SW480, read-out: Basal_Viability ATP SW480
[17] = Homo sapiens, SNU-C1, basal, SNU-C1, read-out: Basal_Viability ATP SNU-C1
[18] = Homo sapiens, DLD-1, basal, DLD-1, read-out: Basal_Viability ATP DLD-1
[19] = Mus musculus, C2C12, S2 Table, module primary assay, 20 / 20.1 codes per legend
[20] = S2 Table, module primary assay, 20 / 20.1 codes per legend
[21] = Homo sapiens, SW480, basal, read-out: Basal_Viability ATP SW480
[22] = Homo sapiens, SNU-C1, basal, read-out: Basal_Viability ATP SNU-C1
[23] = Homo sapiens, IC50 / EC50, NCI-H716
[24] = Homo sapiens, DLD-1, basal, read-out: Basal_Viability ATP DLD-1
[25] = Rattus norvegicus, IC50 / EC50, INS-1E
[26] = Homo sapiens, HCT-116, GSK3b inhibitor pretreated, read-out: GSK3b inh pretreated_Viability ATP HCT116
[27] = Mus musculus, C2C12, IC50 / EC50, C2C12 beta-catenin translocation
[28] = Homo sapiens, HCT-116, HCT116 pretreated with GSK3b inhibitor, read-out: GSK3b inh pretreated_Viability ATP HCT116

CCCCOC(=O)c1ccc(N)cc1 [Butyl aminobenzoate] showed an IC50 [1, 14] of over 20 µM, an EC50 [2, 15] of over 10 µM and an IC50 [3, 16] of 0.586 µM. It also gave an IC50 [4, 17] of over 20 µM, an IC50 ([5]; Homo sapiens, basal, Colo 320) of over 20 µM and an IC50 ([6]; Homo sapiens, S2 Table, module primary assay, 20 = no response at highest concentration, 20.1 = inactive in single concentration testing) of over 10 µM. The IC50 ([7]; Homo sapiens, basal) was over 20 µM, the EC50 ([8]; Homo sapiens, NCI-H716) was over 10 µM and the IC50 [9, 18] was 4.56 µM. For the same compound, the EC50 ([10]; Rattus norvegicus, INS-1E) was over 10 µM, the IC50 ([11]; Homo sapiens, basal) was 0.137 µM and the IC50 ([12]; Homo sapiens, HCT-116, read-out: GSK3b inh pretreated_Viability ATP HCT116) was 5.61 µM. For the same compound, the EC50 [13, 19] was over 10 µM.
Fc1ccc(C(OCCN2CCN(CCCc3ccccc3)CC2)c2ccc(F)cc2)cc1 gave an IC50 ([1]; basal, HCT116) of 4.87 µM, an EC50 ([2]; S2 Table, 20 = no response at highest concentration) of over 10 µM and an IC50 ([3]; basal, SW480, read-out: Basal_Viability ATP SW480) of 2.07 µM. The IC50 ([4]; basal, SNU-C1, read-out: Basal_Viability ATP SNU-C1) was 1.82 µM, the IC50 ([5]; basal, Colo 320) was over 20 µM and the IC50 ([6]; S2 Table, module primary assay, 20 = no response at highest concentration, 20.1 = inactive in single concentration testing) was over 10 µM. For the same compound, the IC50 ([7]; basal) was 1.49 µM, the EC50 [8, 20] was over 10 µM and the IC50 ([9]; basal, DLD-1, read-out: Basal_Viability ATP DLD-1) was 0.903 µM. For the same compound, the EC50 [10, 20] was over 10 µM, the IC50 ([11]; basal) was 0.113 µM and the IC50 ([12]; HCT116 pretreated with GSK3b inhibitor, read-out: GSK3b inh pretreated_Viability ATP HCT116) was 2.85 µM. For the same compound, the EC50 [13, 20] was over 10 µM.
Compound CC[C@H]1CN2CCc3cc(OC)c(OC)cc3[C@@H]2C[C@@H]1C[C@H]1NCCc2cc(OC)c(OC)cc21 [emetine] has an IC50 ([1]; Homo sapiens, HCT-116, basal) of 0.0615 µM, an EC50 ([2]; Homo sapiens, IC50 / EC50) of over 10 µM and an IC50 [3, 21] of 0.001 µM. The IC50 [4, 22] was 0.00228 µM, the IC50 ([5]; Homo sapiens, COLO 320) was 0.0221 µM and the IC50 ([7]; Homo sapiens) was 0.0163 µM. It also gave an EC50 [8, 23] of over 10 µM, an IC50 [9, 24] of 0.0116 µM and an EC50 [10, 25] of over 10 µM. The IC50 ([11]; Homo sapiens) was 0.00831 µM, the IC50 [12, 26] was 0.001 µM and the EC50 [13, 27] was over 10 µM.
For COc1cccc2c1C(=O)c1c(O)c3c(c(O)c1C2=O)C[C@@](O)(C(=O)CO)C[C@@H]3O[C@H]1C[C@H](N)[C@H](O[C@@H]2CCCCO2)[C@H](C)O1 [pirarubicin], the IC50 [1, 14] was 0.911 µM, the EC50 [2, 15] was 0.0806 µM and the IC50 ([3]; Homo sapiens, SW480, read-out: Basal_Viability ATP SW480) was 7.82 µM. For the same compound, the IC50 ([4]; Homo sapiens, SNU-C1, read-out: Basal_Viability ATP SNU-C1) was 9.26 µM, the IC50 ([5]; Homo sapiens, basal, Colo 320) was 2.01 µM and the IC50 ([6]; Homo sapiens) was 0.0063 µM. For the same compound, the IC50 ([7]; Homo sapiens, basal) was over 20 µM, the EC50 ([8]; Homo sapiens, NCI-H716) was over 10 µM and the IC50 ([9]; Homo sapiens, DLD-1, read-out: Basal_Viability ATP DLD-1) was 8.95 µM. The EC50 ([10]; Rattus norvegicus, INS-1E) was over 10 µM, the IC50 ([11]; Homo sapiens, basal) was 1.01 µM and the IC50 [12, 28] was 1.28 µM. The EC50 ([13]; Mus musculus, C2C12) was 3.95 µM.
Work on O=C(Nc1ccc(Oc2ccc(Cl)cc2)c(Cl)c1)c1cc(I)cc(I)c1O [Rafoxanide] yielded an IC50 ([1]; Homo sapiens, HCT-116, basal) of 0.0169 µM, an IC50 [3, 21] of 0.0108 µM and an IC50 [4, 22] of 0.0143 µM. The IC50 ([5]; Homo sapiens, COLO 320) was 0.054 µM, the IC50 ([6]; Homo sapiens, IC50 / EC50, endothelial tube area, ADSC/ECFC co-culture) was over 10 µM and the IC50 ([7]; Homo sapiens) was 0.0095 µM. For the same compound, the EC50 [8, 23] was 1.3 µM, the IC50 [9, 24] was 0.0084 µM and the EC50 [10, 25] was over 10 µM. For the same compound, the IC50 ([11]; Homo sapiens) was 0.0303 µM, the IC50 [12, 26] was 0.0667 µM and the EC50 [13, 27] was over 10 µM.
In the case of O=C(Nc1ccc(Br)cc1)c1cc(Br)cc(Br)c1O [Tribromsalan], the IC50 [1, 14] is reported as 0.003 µM, the EC50 [2, 15] is reported as over 10 µM and the IC50 [3, 16] is reported as 0.001 µM. The IC50 [4, 17] was 0.001 µM, the IC50 ([5]; Homo sapiens, basal, Colo 320) was 0.003 µM and the IC50 ([6]; Homo sapiens) was 1.81 µM. For the same compound, the IC50 ([7]; Homo sapiens, basal) was 0.001 µM, the EC50 ([8]; Homo sapiens, NCI-H716) was over 10 µM and the IC50 [9, 18] was 0.001 µM. The EC50 ([10]; Rattus norvegicus, INS-1E) was over 10 µM, the IC50 ([11]; Homo sapiens, basal) was 0.003 µM and the IC50 [12, 28] was 0.001 µM. The EC50 [13, 19] was over 10 µM.
